Measured values taken from patent US10588935B2, “FC receptor (FcRn) binding peptides and uses thereof” (THE BRIGHAM AND WOMEN'S HOSPITAL, INC., priority 2013, dated 2020).
pKd: −log10 of the molar value. Entries after “also recorded” stand apart in the source; their conditions may differ. Like-named read-outs stand apart in the source and are kept apart here. Bridge positions count the residues as written; N and C are the ends. Peptide text beside a SMILES is read from it.

What was measured:
[1] = test system: hFCGRT^Tg/hB2m^Tg/mFcgrt^−/− mice; test: In vivo acetaminophen toxicity with blockade of FcRn-albumin interaction; parameters: species or system mouse; conditions: 40 mg/kg body weight per day via i.p. osmotic pump; vs control peptide
Protocol: In vivo acetaminophen toxicity experiments: Acetaminophen (Sigma-Aldrich) was diluted in PBS at a concentration of 33.3 mg/ml. […] In blocking experiments using antibody administration, ADM31 or isotype control were administered 14 h prior to the injection of APAP. For blocking the interaction between FcRn and albumin via peptide, a cyclic control peptide for SYN3258 was designed in which three key residues per monomer that were identified by alanine screening to be critical for binding between FcRn and albumin were mutated to alanines (W7A, W11A, […]). SYN3258 or the control peptide were then continuously administered at a dose of 40 mg/kg body weight per day via i.p. osmotic pumps (Alzet, Cupertino, Cat. No 1003D) over a 72 hour period. Prior to the surgical implantation of the pumps, mice were anaesthetized with Buprenex (0.1 mg/kg body weight) s.c. and Ketamine HCl (100 mg/kg)/Xylazine (10 mg/kg) i.p. Hair on the incision site was clipped and the implantation area was disinfected by 5% iodine in 70% isopropanol. Antibiotics (100 μg/ml of gentamycin) were sprayed on the area of incision to prevent infection, and skin was sutured using polypropylene suture. Total duration of the surgical procedure was around 5 minutes per mouse. 18-20 hours after pump implantation, a lethal dose of acetaminophen was administered i.p.

soluble human FcRn = molecular target: T1, soluble human FcRn (Homo sapiens, UniProt P55899); test: SPR (Biacore) affinity of peptides for immobilized soluble human FcRn; type: binding; conditions: pH 6.0; for pKd: read-out: affinity for FcRn by SPR
T1 construct: Soluble human FcRn was expressed and purified by Biogen-Idec as previously described (29)
How it was run: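 FcRn amine-coupled to CM5 chip; binding run at pH 6.0 or 7.4 in 50 mM phosphate, 100 mM NaCl, 0.01% P20, with 5-minute dissociation and pH 8.0 Tris regeneration. KD derived from sensorgrams with a 1:1 binding model; end-of-association responses plotted versus concentration.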

[2] = test system: MDCK II cells expressing hFcRn and hβ2m; test: FcRn dependent albumin transcytosis bioassay; type: cell-based, canine; conditions: input chamber pH 6.0, exit pH 7.4, 2 hours, compared to scrambled peptide or isotype control
Protocol: Albumin transcytosis assays were performed as previously described for IgG. In brief, MDCK II cells expressing hβ2m and hFcRn were grown to confluence on transwells (Costar) and allowed to polarize over 4 days. 12 hours before the transcytosis experiment, the medium was changed to serum-free media without antibiotics. On the day of experiment, the transwells were incubated with HBSS pH 7.4 for 20 minutes before placing on a new 12 well plate (Costar) where the input chamber contains HBSS pH 6.0 and the exit chamber contains HBSS pH 7.4 and pH adjusted albumin was added to the input chamber afterwards. For blocking albumin transcytosis with the peptide inhibitors SYN1753 and SYN3258, transwells were pre-incubated for 20 min with the respective peptides in HBSS pH 6.0 prior to the addition of albumin in the continued presence of the peptides. After incubating for 2 hours in 37° C. and 5% CO2, the medium at the opposite chamber were harvested and the albumin concentration was measured using ELISA method. For the recycling assay, the transwells were washed with HBSS pH 7.4 for 5 minutes before placing on a new 12-well plate with HBSS pH 6.0 at both chambers. After equilibration at 37° C. and 5% CO2, pH adjusted albumin human albumin was added and allowed to incubate for one hour. The transwells were then washed at HBSS pH 6.0 before placing in a new 12-well plate with HBSS pH 7.4 at both chambers. After one hour incubation, medium from the input chamber was removed and the albumin concentration was measured by ELISA. For the human albumin secretion assay the medium was changed to serum- and antibiotic-free media on the day of the experiment. 50 μL of the medium from both chambers were removed periodically over 24 hours, and the human albumin concentration was measured using ELISA with volume reduction adjustment.

shFcRn binding to HSA = shFcRn binding to HSA (Homo sapiens, UniProt P55899); test: SPR screening of FcRn binding peptides for inhibition of shFcRn binding to immobilized HSA; conditions: 14 uM peptide, 5 uM shFcRn, pH 6
Protocol: Unreacted sites were then capped by injecting a solution of ethanolamine over the chip surface. A reference flow cell was activated with EDC/NHS and then blocked with ethanolamine.
Samples were injected over the chip for 3 minutes at 20 uL/min followed by a 2.5 minute dissociation phase.

FcRn [3] = molecular target: T2, FcRn (Homo sapiens, UniProt P55899); conditions: Mezo, PNAS, 2007; cited from earlier work
FcRn [4] = molecular target: T2, FcRn; test: Competition for albumin or IgG binding to FcRn; parameters: Soluble human FcRn was expressed and purified by Biogen-Idec as previously described (29)
Text: Peptide phage libraries, obtained from Dyax Corp, were screened against biotinylated soluble human FcRn bound to streptavidin beads, using 3 rounds of sequential pH 6.0 binding and pH 7.5 elution/amplification protocols. […] Peptide SYN514 was utilized during a 2nd peptide phage screen to occupy this site on FcRn prior to the addition of the phage libraries, and to identify albumin-competitive sequences. This strategy uncovered the albumin-competitive peptide, SYN571, and through structure-activity relationships, the shorter sequence SYN1753 (Ac-[…]-CONH2 (SEQ ID NO: 1) (disulfide) which bound to shFcRn with equivalent affinity as determined by SPR.

T2 sequence (P55899 24-297 limits assumed): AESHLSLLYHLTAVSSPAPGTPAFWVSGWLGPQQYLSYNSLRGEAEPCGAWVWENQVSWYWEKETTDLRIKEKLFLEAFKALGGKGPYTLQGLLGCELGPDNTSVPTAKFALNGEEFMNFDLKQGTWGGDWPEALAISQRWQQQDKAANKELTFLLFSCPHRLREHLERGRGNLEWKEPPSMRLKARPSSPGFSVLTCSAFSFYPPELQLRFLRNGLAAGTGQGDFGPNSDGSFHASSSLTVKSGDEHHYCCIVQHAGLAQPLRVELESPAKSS
T2 sequence (P61769 21-119 partner): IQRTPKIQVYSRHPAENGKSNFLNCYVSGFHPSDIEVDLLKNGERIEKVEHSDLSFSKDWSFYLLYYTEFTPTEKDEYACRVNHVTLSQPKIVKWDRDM
T1 sequence (P55899 24-297 limits assumed): as the sequence (P55899 24-297 limits assumed) above
T1 sequence (P61769 21-119 partner): as the sequence (P61769 21-119 partner) above
Sequence of shFcRn binding to HSA (P55899 24-297 limits assumed): as the sequence (P55899 24-297 limits assumed) above
Sequence of shFcRn binding to HSA (P61769 21-119 partner): as the sequence (P61769 21-119 partner) above

Compound | protection from liver injury (serum ALT) after lethal dose of APAP [1] | survival rate after lethal dose of APAP [1] | pKd (soluble human FcRn) | transcytosis of human albumin [2] | transcytosis of human albumin ([2]; listed as Syn3258) | Kd (soluble human FcRn; Table 3, read-out: Kd, pH 6.0 (Biacore μM)) | block of shFcRn binding to immobilized HSA (shFcRn binding to HSA) | block of IgG binding to hFcRn (FcRn [3]) | Competition for albumin or IgG binding to FcRn (FcRn [4]; Table 3) | competition with IgG or albumin for the FcRn binding site (FcRn [4]; competition experiments / SPR)
CC(=O)N[C@@H](CCCNC(=N)N)C(=O)N[C@@H](Cc1ccc(O)cc1)C(=O)N[C@@H](Cc1ccccc1)C(=O)N[C@H]1CSSC[C@@H](C(=O)N[C@@H](CCC(=O)O)C(=O)N[C@@H](CCC(=O)O)C(=O)N[C@H](C(=O)NCC(=O)N[C@H](C(=O)NCC(=O)NCC(=O)NCC(=O)N[C@@H](CCCNC(=N)N)C(=O)N[C@@H](Cc2ccc(O)cc2)C(=O)N[C@@H](Cc2ccccc2)C(=O)N[C@H]2CSSC[C@@H](C(=O)N[C@@H](CCC(=O)O)C(=O)N[C@@H](CCC(=O)O)C(=O)N[C@H](C(=O)NCC(=O)N[C@H](C(N)=O)[C@@H](C)O)C(C)C)NC(=O)[C@H](Cc3c[nH]c4ccccc34)NC(=O)CNC(=O)[C@H](Cc3c[nH]cn3)NC(=O)[C@H](CCCCN)NC(=O)[C@H](Cc3c[nH]c4ccccc34)NC(=O)[C@H](CCCCN)NC(=O)[C@H]([C@@H](C)O)NC2=O)[C@@H](C)O)C(C)C)NC(=O)[C@H](Cc2c[nH]c3ccccc23)NC(=O)CNC(=O)[C@H](Cc2c[nH]cn2)NC(=O)[C@H](CCCCN)NC(=O)[C@H](Cc2c[nH]c3ccccc23)NC(=O)[C@H](CCCCN)NC(=O)[C@H]([C@@H](C)O)NC1=O [SYN3258] (Ac-RYFCTKWKHGWCEEVGTGGGRYFCTKWKHGWCEEVGT-NH2; disulfide 4-12, 24-32) | conferred protection from liver injury | improve the survival rate | 8.44 | capable of blocking transcytosis of human albumin; also recorded: inhibit FcRn-directed transcytosis of albumin | significantly reducing | – | – | – | – | –
CC(=O)N[C@@H](CCCNC(=N)N)C(=O)N[C@@H](Cc1ccc(O)cc1)C(=O)N[C@@H](Cc1ccccc1)C(=O)N[C@H]1CSSC[C@@H](C(=O)N[C@@H](CCC(=O)O)C(=O)N[C@@H](CCC(=O)O)C(=O)N[C@H](C(=O)NCC(=O)N[C@H](C(N)=O)[C@@H](C)O)C(C)C)NC(=O)[C@H](Cc2c[nH]c3ccccc23)NC(=O)CNC(=O)[C@H](Cc2c[nH]cn2)NC(=O)[C@H](CCCCN)NC(=O)[C@H](Cc2c[nH]c3ccccc23)NC(=O)[C@H](CCCCN)NC(=O)[C@H]([C@@H](C)O)NC1=O [SYN1753] | – | – | ~6.30 | capable of blocking transcytosis of human albumin; also recorded: significantly reducing | – | 0.5 µM | – | – | – | –
CC(=O)N[C@@H](CCCNC(=N)N)C(=O)N[C@@H](Cc1ccccc1)C(=O)N[C@@H]1C(=O)N[C@@H]([C@@H](C)O)C(=O)NCC(=O)N[C@@H](Cc2c[nH]cn2)C(=O)N[C@@H](Cc2ccccc2)C(=O)NCC(=O)N(C)CC(=O)N(C)[C@@H](CC(C)C)C(=O)N[C@@H](Cc2ccc(O)cc2)C(=O)N2CCC[C@H]2C(=O)N[C@H](C(N)=O)CSSC1(C)C [SYN1327, Ac-RF-Pen-TGHFG-Sar-NMeLeu-YPC-CONH2, reference compound] | – | – | – | – | – | – | not able to compete for HSA binding | block the binding of IgG to hFcRn | IgG | competes for binding of IgG
